Laboratory results reported in BigSolDB 2.1.

Cc1ccc(S(N)(=O)=O)cc1
solubility (mole fraction)
Conditions | 283.15 K | 288.15 K | 293.15 K | 298.15 K | 303.15 K | 308.15 K | 313.15 K | 318.15 K
in acetonitrile | 0.078 | 0.0848 | 0.0955 | 0.106 | 0.118 | 0.13 | 0.143 | 0.159
in ethanol | 0.0344 | 0.0392 | 0.0448 | 0.0524 | 0.0608 | 0.0701 | 0.0801 | 0.0914
in ethyl acetate | 0.0728 | 0.0786 | 0.0859 | 0.0946 | 0.104 | 0.114 | 0.123 | 0.133
in isopropanol | 0.0203 | 0.0232 | 0.0267 | 0.0306 | 0.0347 | 0.0392 | 0.0445 | 0.0509
in methanol | 0.0441 | 0.0505 | 0.0569 | 0.0648 | 0.073 | 0.0827 | 0.0932 | 0.104
in n-butanol | 0.0242 | 0.028 | 0.0316 | 0.0358 | 0.0403 | 0.0452 | 0.0501 | 0.0565
in n-propanol | 0.0272 | 0.0313 | 0.0358 | 0.0415 | 0.047 | 0.0542 | 0.0611 | 0.0689

Cc1ccccc1S(N)(=O)=O
solubility (mole fraction)
Conditions | 283.15 K | 288.15 K | 293.15 K | 298.15 K | 303.15 K | 308.15 K | 313.15 K | 318.15 K
in acetonitrile | 0.0337 | 0.0375 | 0.0423 | 0.0475 | 0.0534 | 0.0597 | 0.0669 | 0.0737
in ethanol | 0.0242 | 0.0266 | 0.0293 | 0.0321 | 0.035 | 0.0384 | 0.042 | 0.0456
in ethyl acetate | 0.0497 | 0.053 | 0.0566 | 0.0604 | 0.0644 | 0.0687 | 0.0729 | 0.0775
in isopropanol | 0.0198 | 0.022 | 0.0246 | 0.0276 | 0.0305 | 0.0337 | 0.0374 | 0.0414
in methanol | 0.0277 | 0.0305 | 0.0341 | 0.0378 | 0.0425 | 0.0473 | 0.0526 | 0.0579
in n-butanol | 0.0209 | 0.0232 | 0.0257 | 0.0286 | 0.0316 | 0.0348 | 0.0382 | 0.0421
in n-propanol | 0.0226 | 0.0249 | 0.0274 | 0.0301 | 0.0331 | 0.0361 | 0.0394 | 0.0427
